What was measured:
[1] = test system: Caspase-3; test: Caspase-3 induction in oral cancer cells (KB), colorimetric DEVD-pNA; type: cell-based, human; conditions: 5 ug/ml
Protocol: Human squamous cell carcinoma (KB) were plated in a 25 cm^2 flask. When cultures achieved confluence, the cyclopentenone derivative of structure 20 was added to cells. The final concentration of derivative of the structure 20 in the flask was 5 ug/ml. The untreated wells served as controls. The cells were incubated with the drug for 2 different time points of 6 and 16 hours at 37° C. The cells were collected by centrifugation at 2000 r.p.m. for 10 minutes. The supernatant was gently removed and discarded while Lysis Buffer was added to the cell pellet (25 ul of lysis buffer per 1×10^4 cell). The cell lysate was incubated on ice for 10 minutes and centrifuged at 10,000-×g for 1 minute. The supernatant was transferred to a new tube and kept on ice. 50 ul of the cell lysate was added in a 96 well plate. To this was added 2× Reaction Buffer. Prior to using reaction buffer 10 ul of fresh DTT stock per 1 ml of 2× Reaction Buffer was added. To each well 5 ul of Caspase-3 colorimetric substrate (DEVD-pNA) was added. The plate was incubated for 1–2 hours at 37° C. and read at 405 nm.
The level of caspase enzymatic activity in the cell lysate is directly proportional to the absorbance at 405 nm.

[2] = test system: VEGF; test: VEGF levels in endothelial cells (ECV304), ELISA; type: cell-based, human; conditions: 5 ug/ml, 4 hours
Protocol: Human endothelial cells (ECV304) were plated at the density of 8–10×10^5 cells per 2 ml in a six well plate. After an overnight incubation of cells at 37° C., cyclopentenone derivatives at a concentration of 5 ug/ml was added to the wells. The untreated wells served as controls. The plates were incubated for 4 hours at 37° C. The medium was collected from all the wells (control and treated) and spun down at 2000 r.p.m to remove the cellular material. The supernatant was collected and used for ELISA (quantikine human VEGF, R&D Systems). The assay employs the quantitative sandwich enzyme immuonoassay technique. A monoclonal antibody specific for VEGF has been pre-coated onto a microplate. Standards and samples were pipetted into the wells and VEGF present was bound by the immobilized antibody. After washing away the unbound substances, an enzyme-linked polyclonal antibody specific for VEGF was added to the wells. Following a wash to remove any unbound antibody-enzyme reagent, a substrate solution was added to the wells and color developed in proportion to the amount of VEGF bound in the initial step. The optical density of each well was determined within 30 minutes using a microplate reader set to 450 nm and reference wavelength at 540 nm. The VEGF levels were inhibited by the addition of cyclopentenone derivatives in vitro.

[3] = test system: Tubulin; test: in vitro tubulin polymerization (assembly) assay, absorbance at 340 nm; type: biochemical; conditions: tubulin 1 mg/ml, 37° C., pH 6.9; read-out: IC50 values for inhibition of Tubulin Polymerization
Protocol: The cyclopentenone derivatives were checked for their effects on tubulin polymerization in in vitro. Briefly, the tubulin assembly reaction was performed at 37° C. in buffer containing 80 mM PIPES, 1 mM EGTA, 1.0 mM GTP and 1 mM MgCl2 (pH 6.9) at a tubulin concentration of 1 mg/ml in the presence or absence of the cyclopentenone derivatives. The final concentration of the cyclopentenone derivatives in the reaction mixture varied from 1–5 uM. The derivatives were dissolved in 0.1% DMSO. The control experiments were carried out with 0.1% DMSO. The tubulin polymerization was followed by measurement of the absorbance of the solution at 340 nm every 30 seconds. […] Thus the cyclopentenone derivatives mediated their observed anticancer activities by tubulin depolymerization.

[4] = test system: PTC tumor xenografts; test: In vivo anti-tumor activity on PTC (colon) xenografted mice; design: species or system Balb/c athymic mice; conditions: PTC xenograft, intravenously 0.5 mg/100 μL once a day for 14 days
Protocol: PTC tumor xenografts were grown in Balb/c athymic mice by subcutaneous inoculation of a single cell suspension of PTC cells (15×10^6 cells/100 μL). The tumor bearing animals were divided into 2 groups of three animals each including one group comprising untreated control animals. Treatment with compound of formula no. 49 was initiated when the average tumor volumes, as measured using a vernier caliper, were […]. Compound of formula no. 49 was administered intravenously to the assigned group of tumor bearing animals at a dose of 0.5 mg/100 μL once a day and the treatment was continued for a period of 14 days.
The antitumor activity of the compound was monitored by measuring tumor volumes every fourth day using the formula W*W*L*0.4 (W=smaller diameter, L=larger diameter). The percentage inhibition of tumor growth was calculated using the formula (1-tumor volume-treated/tumor volume-control)*100. […] Compound of formula no. […] The percentage inhibition of tumor growth caused compound of formula no. 49 as compared to controls on day 23 was 45.8%.

SMILES	Percent Reduction in VEGF [2] [%]	IC50 [3] [nM]	also measured
COc1ccc(C2=C(c3cc(OC)c(OC)c(OC)c3)C(=NO)CC2OC(C)=O)cc1 (stereo not shown) [Compound 20]	2.0 ± 0.1		Percent Induction of Caspase-3, 6 hours ([1]; 6 hours): 13.6 ± 2.4%; Percent Induction of Caspase-3, 16 hours ([1]; 16 hours): 20.7 ± 3.1%
COc1ccc(C2=C(c3cc(OC)c(OC)c(OC)c3)C(=O)CC2O)cc1O (stereo not shown) [Compound 39]		1400 ± 600	
COc1ccc(C2=C(c3cc(OC)c(OC)c(OC)c3)C(=O)C(O)C2)cc1 (stereo not shown) [Compound 48]		2100 ± 100	
COc1ccc(C2=C(c3cc(OC)c(OC)c(OC)c3)C(=NO)C(O)C2)cc1 (stereo not shown) [Compound 49]	28.6 ± 1.9	2300 ± 500	antitumor activity on PTC xenografts (in words) [4]: significant antitumor activity
COc1ccc(C2=C(c3cc(OC)c(OC)c(OC)c3)/C(=N\O)C(O)C2)cc1F (stereo not shown) [Compound 66]		2000 ± 600	
COc1ccc(C2=C(c3cc(OC)c(OC)c(OC)c3)C(=O)C(O)C2)cc1O (stereo not shown) [Compound 74]		1800 ± 500	

Reference: patent US7179937B2, “Cyclopentenone derivatives for cancer therapy” (Dabur Research Foundation, priority 2001, dated 2007)
